Measurements reported in ChEMBL document CHEMBL1142268, “Histone deacetylase inhibitors: from bench to clinic” (J Med Chem, 2008).
Calls of active or inactive are those of the source. The rule behind the calls is not given here.

Key:
[1] = system: Jurkat; test: Inhibition of human Jurkat cells; type: functional, cell-based
[2] = biological target: Histone deacetylase; test: Inhibition of HDAC from human Jurkat cells
[3] = biological target: T1, Histone deacetylase 8 (Homo sapiens, UniProt Q9BY41)
T1 sequence (Q9BY41 whole entry): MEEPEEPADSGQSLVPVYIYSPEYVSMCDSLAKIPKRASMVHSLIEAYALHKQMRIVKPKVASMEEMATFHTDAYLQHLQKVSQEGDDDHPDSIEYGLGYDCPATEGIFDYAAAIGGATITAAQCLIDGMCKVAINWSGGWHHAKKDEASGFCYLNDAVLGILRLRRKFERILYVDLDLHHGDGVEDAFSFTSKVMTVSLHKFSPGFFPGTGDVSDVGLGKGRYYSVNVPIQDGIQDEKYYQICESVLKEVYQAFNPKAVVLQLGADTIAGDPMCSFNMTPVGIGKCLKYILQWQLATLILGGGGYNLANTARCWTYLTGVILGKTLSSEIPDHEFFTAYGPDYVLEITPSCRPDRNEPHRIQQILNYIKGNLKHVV
Description: Inhibition of human HDAC8

[4] = biological target: Histone deacetylase; test: Inhibition of HDAC from human HeLa cells; type: cell-based
[5] = biological target: T1, Histone deacetylase 8; remark: listed apart in the source
[6] = biological target: T2, Histone deacetylase 1 (Homo sapiens, UniProt Q13547)
[7] = Inhibition of human CCD1059SK cells; type: functional, cell-based
[8] = system: MCF7; test: Inhibition of human MCF7 cells; type: functional, cell-based
[9] = system: HCT-116; test: Inhibition of human HCT116 cells; type: functional, cell-based
[10] = system: A549; test: cells; settings: Homo sapiens
Description: Antiproliferative activity against human A549 cells

[11] = system: SW-620; test: Inhibition of human SW620 cells; type: functional, cell-based
[12] = system: SK-BR-3; test: Antiproliferative activity against human SKBR3 cells; type: functional, cell-based
[13] = system: NCI-H460; test: Inhibition of human NCI-H460 cells; type: functional, cell-based
[14] = biological target: Histone deacetylase 8 (Homo sapiens) (UniProt Q9BY41)
[15] = system: HCT-116; test: Antitumor activity against human HCT116 cells xenografted in ip dosed nude mouse assessed as tumor volume inhibition; type: functional
[16] = biological target: T3, Protein deacetylase HDAC6 (Homo sapiens, UniProt Q9UBN7)
T3 sequence (Q9UBN7 whole entry): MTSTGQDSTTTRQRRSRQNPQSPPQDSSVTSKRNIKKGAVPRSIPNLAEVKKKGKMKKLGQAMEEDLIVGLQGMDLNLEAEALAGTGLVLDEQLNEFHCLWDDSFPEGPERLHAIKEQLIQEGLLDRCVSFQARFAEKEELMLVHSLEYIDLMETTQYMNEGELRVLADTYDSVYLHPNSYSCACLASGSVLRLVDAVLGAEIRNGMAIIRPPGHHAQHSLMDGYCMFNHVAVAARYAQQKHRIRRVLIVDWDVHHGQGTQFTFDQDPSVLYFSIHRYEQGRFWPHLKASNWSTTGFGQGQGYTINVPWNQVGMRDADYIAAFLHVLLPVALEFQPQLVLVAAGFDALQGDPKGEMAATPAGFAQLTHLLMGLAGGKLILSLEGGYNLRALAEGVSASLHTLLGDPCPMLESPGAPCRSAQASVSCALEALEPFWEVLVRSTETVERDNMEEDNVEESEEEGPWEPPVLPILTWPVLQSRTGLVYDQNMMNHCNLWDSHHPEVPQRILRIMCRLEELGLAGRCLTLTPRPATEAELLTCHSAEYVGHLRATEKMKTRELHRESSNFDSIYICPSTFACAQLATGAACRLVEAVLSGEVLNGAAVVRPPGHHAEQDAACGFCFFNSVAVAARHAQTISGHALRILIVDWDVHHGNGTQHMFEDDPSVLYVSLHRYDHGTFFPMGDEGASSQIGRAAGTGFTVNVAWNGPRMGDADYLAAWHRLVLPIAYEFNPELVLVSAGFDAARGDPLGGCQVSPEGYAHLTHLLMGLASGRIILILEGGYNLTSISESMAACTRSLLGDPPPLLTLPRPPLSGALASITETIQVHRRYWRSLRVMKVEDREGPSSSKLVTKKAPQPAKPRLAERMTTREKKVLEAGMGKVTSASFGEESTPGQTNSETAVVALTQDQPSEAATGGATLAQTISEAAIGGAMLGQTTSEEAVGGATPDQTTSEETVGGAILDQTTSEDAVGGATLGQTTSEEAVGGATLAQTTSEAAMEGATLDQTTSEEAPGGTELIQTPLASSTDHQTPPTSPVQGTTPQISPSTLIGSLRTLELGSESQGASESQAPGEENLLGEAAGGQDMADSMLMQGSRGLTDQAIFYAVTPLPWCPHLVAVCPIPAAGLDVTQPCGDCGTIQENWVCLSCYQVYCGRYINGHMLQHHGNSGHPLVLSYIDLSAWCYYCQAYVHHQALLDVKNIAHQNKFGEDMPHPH

[17] = biological target: Histone deacetylase 3 (Homo sapiens, UniProt O15379)
[18] = Antiproliferative activity against human MDA435 cells; type: functional, cell-based; settings: MDA-MB-435
[19] = biological target: Histone deacetylase; test: Inhibition of HDAC from human K562 cells; type: cell-based
[20] = system: COLO 205; test: Inhibition of human CoLo205 cells; type: functional
[21] = biological target: Histone deacetylase; test: Inhibition of HDAC from human SNU16 cells; settings: snu-16
[22] = system: MKN-45; test: Antiproliferative activity against human MKN45 cells; type: functional, cell-based
[23] = system: HT-1080; test: Inhibition of human HT1080 cells; type: functional, cell-based
[24] = biological target: T2, Histone deacetylase 1; test: Inhibition of HDAC1
[25] = biological target: Histone deacetylase (Homo sapiens) (UniProt Q13547+O15379+Q9UBN7+Q92769+Q9UQL6+Q8WUI4+Q9BY41+Q96DB2+P56524+Q9UKV0+Q969S8); test: Inhibition of HDAC from human HeLa cells at 1000 nM; type: cell-based
[26] = biological target: Histone deacetylase 1 (Mus musculus, UniProt O09106)
Description: Inhibition of mouse liver HDAC1

[27] = Metabolic stability in human liver microsomes; type: ADME, Microsome
[28] = biological target: T2, Histone deacetylase 1; test: Inhibition of HDAC1 from human HeLa cells; type: cell-based

T2 sequence (Q13547 whole entry): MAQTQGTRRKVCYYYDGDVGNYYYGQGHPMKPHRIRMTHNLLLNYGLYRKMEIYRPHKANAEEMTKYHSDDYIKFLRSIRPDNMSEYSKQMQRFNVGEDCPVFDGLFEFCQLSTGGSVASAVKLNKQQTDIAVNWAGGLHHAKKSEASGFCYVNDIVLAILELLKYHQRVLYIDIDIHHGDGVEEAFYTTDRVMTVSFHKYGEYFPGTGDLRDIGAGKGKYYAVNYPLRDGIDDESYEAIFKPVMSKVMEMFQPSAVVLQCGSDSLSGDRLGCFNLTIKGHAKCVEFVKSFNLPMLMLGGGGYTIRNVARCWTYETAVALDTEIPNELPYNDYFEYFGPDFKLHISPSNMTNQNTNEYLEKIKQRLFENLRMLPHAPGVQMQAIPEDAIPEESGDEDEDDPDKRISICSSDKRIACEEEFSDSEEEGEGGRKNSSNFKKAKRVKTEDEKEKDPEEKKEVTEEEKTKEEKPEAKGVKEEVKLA
Chain of Histone deacetylase 1 (Mus musculus, UniProt O09106) (O09106 whole entry): as the sequence (Q13547 whole entry) above, with R8K, D399E, E424D counted along it
Chain of Histone deacetylase 3 (O15379 whole entry): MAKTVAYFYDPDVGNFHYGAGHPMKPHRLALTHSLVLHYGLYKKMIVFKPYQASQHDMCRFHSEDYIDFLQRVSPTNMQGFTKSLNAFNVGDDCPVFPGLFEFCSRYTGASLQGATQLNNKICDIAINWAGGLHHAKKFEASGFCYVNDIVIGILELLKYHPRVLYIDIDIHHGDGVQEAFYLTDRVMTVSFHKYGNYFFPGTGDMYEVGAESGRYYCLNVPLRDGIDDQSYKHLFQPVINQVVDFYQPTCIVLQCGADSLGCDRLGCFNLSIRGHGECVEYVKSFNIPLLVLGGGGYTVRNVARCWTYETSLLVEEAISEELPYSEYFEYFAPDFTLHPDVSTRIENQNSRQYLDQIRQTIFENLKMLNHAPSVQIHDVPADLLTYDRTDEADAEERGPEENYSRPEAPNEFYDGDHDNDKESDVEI

O=C(/C=C/c1ccc(Cc2nc3ccccc3[nH]2)cc1)NO
IC50 [1]: 0.069 µM | IC50 [2]: 0.028 µM

O=C(CCCCCNC(=S)CS)Nc1ccccc1
IC50 [3]: > 40 µM | IC50 [4]: 13.3 µM

O=C(Cc1ccc(-c2csc(NC(=O)COc3ccccc3)n2)s1)NO
IC50 [5]: 0.038 µM | IC50 [6]: 0.7 µM

CCC(c1ccc(/C=C/C(=O)NO)cc1)c1nc2ccccc2n1CC (stereo not drawn)
IC50 [1]: 0.31 µM | IC50 [2]: 0.096 µM

Nc1ccccc1NC(=O)c1ccc(CN(CCO)Cc2ccc3c(c2)OCO3)cc1
IC50 [7]: 41.7 µM | IC50 [8]: 3.8 µM | IC50 [9]: 0.8 µM | IC50 [10]: 20 µM | IC50 [11]: 2.2 µM | IC50 [12]: 3.5 µM

Nc1ccccc1NC(=O)c1ccc(CN(CCO)Cc2ccccc2)cc1
IC50 [7]: 19.4 µM | IC50 [8]: 10 µM | IC50 [9]: 0.9 µM | IC50 [10]: 20.5 µM | IC50 [11]: 3.3 µM | IC50 [12]: 3.9 µM

O=C(CCCCCCS)Nc1ccccc1
EC50 [13]: > 50 µM

O=C(CCc1ccccc1)Nc1ccc(C(=O)Nc2ccc(Oc3ccccc3)cc2)cc1
IC50 [6]: 1.5 µM | Activity [14]: inactive

CC(=O)SCC(=O)CCCCCCC(=O)Nc1ccccc1
IC50 [3]: 0.19 µM | IC50 [4]: 0.081 µM

COc1cc(NCc2ccc(/C=C/C(=O)Nc3cc(-c4cccs4)ccc3N)cc2)cc(OC)c1OC
Inhibition [15]: 78%

O=C(/C=C/c1ccc(CN(CCO)CCc2cc3ccccc3[nH]2)cc1)NO
IC50 [16]: 0.015 µM | IC50 [5]: 0.14 µM | IC50 [6]: 0.0018 µM | IC50 [17]: 0.0037 µM

CNC(=O)C(=O)CCCCCCC(=O)Nc1nc(-c2ccc(OC)cc2)cs1
IC50 [18]: 5.8 µM | IC50 [19]: 0.0091 µM

Nc1ccccc1NC(=O)c1ccc(CN(CCO)Cc2ccc(F)c(F)c2)cc1
IC50 [7]: 94.8 µM | IC50 [8]: 10.4 µM | IC50 [9]: 0.8 µM | IC50 [10]: 24.2 µM | IC50 [11]: 3.6 µM | IC50 [12]: 3.6 µM

CC(C)(C)NCc1c(-c2ccccc2)nc2cc(/C=C/C(=O)NO)ccn12
GI50 [20]: 0.26 µM

O=C(/C=C/c1ccc(CNC(=O)c2ccc(N3CCCC3)cc2)cc1)NO
IC50 [21]: 0.205 µM | IC50 [10]: 0.35 µM | IC50 [22]: 0.8 µM | IC50 [12]: 0.11 µM

Cn1cc(CN(CCO)Cc2ccc(C(=O)Nc3ccccc3N)cc2)c2ccccc21
IC50 [7]: 28.3 µM | IC50 [8]: 8.4 µM | IC50 [9]: 5.7 µM | IC50 [10]: 20.8 µM | IC50 [11]: 4.5 µM | IC50 [12]: 6.9 µM

CC(=O)SCC(=O)NCCCCCC(=O)Nc1ccccc1
IC50 [3]: > 40 µM | IC50 [4]: 20.1 µM

CNC(=O)C(=O)CCCCCCC(=O)Nc1nc(-c2cccnc2)cs1
IC50 [18]: 2 µM | IC50 [19]: 0.0043 µM | IC50 [23]: 0.67 µM

CSCC(=O)CCCCCCC(=O)Nc1ccccc1
IC50 [3]: > 40 µM | IC50 [4]: > 40 µM

CN(C)c1ccc(C(=O)NCc2ccc(/C=C/C(=O)NO)cc2)cc1
IC50 [21]: 0.172 µM | IC50 [10]: 0.48 µM | IC50 [22]: 0.83 µM | IC50 [12]: 0.16 µM

O=C(/C=C/c1ccc(CCc2nc3ccccc3[nH]2)cc1)NO
IC50 [1]: 0.16 µM | IC50 [2]: 0.14 µM

O=C(/C=C/c1ccc(CNC(=O)c2ccccn2)cc1)NO
IC50 [21]: 0.941 µM | IC50 [10]: 2.23 µM | IC50 [22]: 3.64 µM | IC50 [12]: 0.87 µM

O=C(/C=C/c1cccc(Cc2nc3ccccc3[nH]2)c1)NO
IC50 [1]: 0.15 µM | IC50 [2]: 0.15 µM

S=c1[nH]cc(-c2ccncc2)[nH]1
Activity [24]: inactive

O=C(/C=C/c1cccc(NS(=O)(=O)Cc2ccccc2)c1)NO
inhibition [25]: 23%

CC(C)(c1ccccc1)c1cc(=O)[nH]c(SCCCCCC(=O)NO)n1
IC50 [26]: 0.121 µM

COc1ccc(CN(CCO)Cc2ccc(C(=O)Nc3ccccc3N)cc2)cc1
IC50 [7]: 18.4 µM | IC50 [8]: 4.9 µM | IC50 [9]: 0.8 µM | IC50 [10]: 17.3 µM | IC50 [11]: 2.1 µM | IC50 [12]: 3.4 µM

CNC(=O)C(=O)CCCCCCC(=O)Nc1nc(-c2ccc(CCN(C)C)cc2)cs1
IC50 [18]: 0.16 µM | IC50 [19]: 0.0031 µM

O=C(CS)NCCCCCC(=O)Nc1ccccc1
IC50 [3]: 3.89 µM

O=C(CO)NCCCCCC(=O)Nc1ccccc1
IC50 [3]: > 40 µM | IC50 [4]: > 40 µM

COc1ccc2[nH]c(C)c(CC(=O)N[C@@H](CCCCCC(C)=O)C(=O)NCCc3c(-c4ccccc4)[nH]c4ccccc34)c2c1
microsomal CLint [27]: > 300 µL/min/mg | IC50 [28]: 0.73 µM

CC(C)C(=O)SCCCCCCC(=O)Nc1ccccc1
EC50 [13]: 20 µM

CNC(=O)C(=O)CCCCCCC(=O)Nc1cccc(-c2ccccc2)c1
IC50 [18]: 14 µM | IC50 [19]: 0.0037 µM | IC50 [23]: 6.9 µM

COc1ccc(NCc2ccc(C(=O)Nc3cc(-c4cccs4)ccc3N)cc2)cc1OC
Inhibition [15]: 72%

O=C(/C=C/c1ccc(CNC(=O)c2cccnc2)cc1)NO
IC50 [21]: 0.37 µM | IC50 [10]: 2.89 µM | IC50 [22]: 4.98 µM | IC50 [12]: 1.28 µM
